These results are taken from patent US9187424B1, “Aryl dihydropyridinones and piperidinone MGAT2 inhibitors” (Bristol-Myers Squibb Company, priority 2011, dated 2015).

The target of test [1] is T1, Human MGAT-2 (Homo sapiens (Human), UniProt Q3SYC2). The test is described as follows: MGAT SPA Assay.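 Note: inhibition scaled between DMSO vehicle as full MGAT2 activity and membranes of uninfected Sf9 cells as blank, IC50 fitted by logistic curve.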 To be noted: membranes from Sf9 cells expressing recombinant human MGAT2; 2-monooleoylglycerol and [3H]-oleoyl-CoA. Format: biochemical.
The target in test [2] is T1, Human MGAT-2. The test is described as follows: MGAT LCMS Assay (human MGAT-2).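 Note: diolein product quantified by LC/MS with positive APCI, expressed as peak area ratio versus an internal standard, and this ratio used to derive IC50.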 The class given is biochemical. To be noted: human MGAT-2 membranes expressed in Sf9 cells; 2-oleoylglycerol and oleoyl-Coenzyme A; read-out: h-MGAT2 IC50 (nM) LCMS Assay.

One may read the IC50 as the concentration needed to halve the response being measured.

T1 sequence (Q3SYC2 whole entry): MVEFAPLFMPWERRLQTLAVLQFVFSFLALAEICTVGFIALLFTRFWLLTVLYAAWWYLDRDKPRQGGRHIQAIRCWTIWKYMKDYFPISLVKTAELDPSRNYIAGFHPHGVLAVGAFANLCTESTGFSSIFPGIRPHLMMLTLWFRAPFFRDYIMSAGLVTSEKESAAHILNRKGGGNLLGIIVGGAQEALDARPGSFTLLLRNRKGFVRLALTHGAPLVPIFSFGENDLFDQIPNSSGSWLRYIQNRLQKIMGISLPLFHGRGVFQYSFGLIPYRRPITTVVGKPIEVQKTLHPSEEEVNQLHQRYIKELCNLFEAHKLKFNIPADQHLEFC

Take `Cc1ccc(C2=C(C(=O)Nc3ccc(F)cc3)C(=O)NC(c3ccc(OCc4ccccc4)cc3)(C(F)(F)F)C2)cc1` (stereo not shown) [Example 54]: the IC50 on Human MGAT-2 [1] came out at 258 nM; on Human MGAT-2 [2], 20 nM.

`O=C1NC(c2ccc(OCCCC(F)(F)F)cc2)(C(F)(F)F)CC(c2ccc(OC(F)F)cc2)=C1n1cnnn1` (stereo not shown) [Example 149]: the IC50 at Human MGAT-2 [1] was 53 nM; at Human MGAT-2 [2], 6 nM.

With `Cc1ccc(C2=C(C#N)C(=O)NC(c3ccc(OCC(F)(F)F)cc3)(C(F)(F)F)C2)cc1` (stereo not shown) [Example 89], the IC50 was 731 nM at Human MGAT-2 [1] and 20 nM at Human MGAT-2 [2].

As for `COc1ccc(C2=C(C#N)C(=O)NC(c3ccc(OCCCC(F)(F)F)cc3)(C(F)(F)F)C2)c(F)c1` (stereo not shown) [Example 81], the IC50 was 55 nM on Human MGAT-2 [1] and 4 nM on Human MGAT-2 [2].

Consider `Cc1ccc(C2=C(C(=O)Nc3ccccc3Cl)C(=O)NC(c3ccc(OCCCC(F)(F)F)cc3)(C(F)(F)F)C2)cc1` (stereo not shown) [Example 60], for which the IC50 was determined as 441 nM at Human MGAT-2 [1] and 12 nM at Human MGAT-2 [2].

With `Cc1ccc(C2=C(C(=O)Nc3nn[nH]n3)C(=O)NC(c3ccc(C4=CCCC4)cc3)(C(F)(F)F)C2)cc1` (stereo not shown) [Example 126], the IC50 was determined as 1870 nM on Human MGAT-2 [1] and 33 nM on Human MGAT-2 [2].

Turning to `Cc1ccc(C2=C(c3nn[nH]n3)C(=O)NC(c3ccc(Br)cc3)(C(F)(F)F)C2)cc1` (stereo not shown) [Example 112], the results for the IC50 at Human MGAT-2 [1] and at Human MGAT-2 [2] were 1300 nM and 204 nM, respectively.

Consider `CCCCCCCCCCCCCCCCNC(=O)C1(C)CC(c2ccc(C)cc2)=C(C(=O)Nc2ccc(OC)cc2)C(=O)N1` (stereo not shown) [Example 173], for which the results for the IC50 at Human MGAT-2 [1] and on Human MGAT-2 [2] were 43 nM and 63 nM, respectively.

Take `COc1ccc(NC(=O)C2=C(c3ccc(C)cc3)CC(c3ccc(OCCCC(F)(F)F)cc3)(C(F)(F)F)NC2=O)cc1F` (stereo not shown) [Example 84]: the figures for the IC50 on Human MGAT-2 [1] and on Human MGAT-2 [2] were 115 nM and 2 nM, respectively.

With `COc1ccc(NC(=O)C2=C(c3ccc(C)cc3C)CC(c3ccc(OCCCC(F)(F)F)cc3)(C(F)(F)F)NC2=O)cc1` (stereo not shown) [Example 148], the IC50 at Human MGAT-2 [1] stood at 102 nM; at Human MGAT-2 [2] it was 9 nM.

`CCCCCCCNC(=O)C1(C)CC(c2ccc(C)cc2)=C(C(=O)Nc2ccc(OC)cc2)C(=O)N1` (stereo not shown) [Example 166]: the IC50 at Human MGAT-2 [1] was found to be 237 nM; at Human MGAT-2 [2], 102 nM.

Turning to `O=C1NC(c2ccc(OCCCC(F)(F)F)cc2)(C(F)(F)F)CC(c2ccc(C(F)(F)F)cc2)=C1c1nn[nH]n1` (stereo not shown) [Example 98], the IC50 is 154 nM at Human MGAT-2 [1] and 69 nM on Human MGAT-2 [2].

With `Cc1ccc(C2=C(NC(=O)c3ccc(Cl)nn3)C(=O)NC(c3ccc(OCCCC(F)(F)F)cc3)(C(F)(F)F)C2)cc1` (stereo not shown) [Example 158], the IC50 at Human MGAT-2 [1] amounted to 302 nM; at Human MGAT-2 [2], 75 nM.

Take `Cc1ccc(C2=C(C(=O)Nc3ccc(C)c(F)c3)C(=O)NC(c3ccc(OCCCC(F)(F)F)cc3)(C(F)(F)F)C2)cc1` (stereo not shown) [Example 85]: the IC50 at Human MGAT-2 [1] amounted to 1460 nM; at Human MGAT-2 [2] it was 7 nM.

For `Cc1ccc(C2=C(C(=O)Nc3ccc(OC(F)(F)F)cc3)C(=O)NC(C)(c3ccc(OCCCC(F)(F)F)cc3)C2)cc1` (stereo not shown) [Example 11, 6-Methyl-2-oxo-4-p-tolyl-6-(4-(4,4,4-trifluorobutoxyl)phenyl)-N-(4-(trifluoromethoxy)-phenyl)-1,2,5,6-tetrahydropyridine-3-carboxamide], the values for the IC50 on Human MGAT-2 [1] and on Human MGAT-2 [2] were 48 nM and 13 nM, respectively.

With `Cc1ccc(C2=C(NC(=O)c3oncc3C)C(=O)NC(c3ccc(OCCCC(F)(F)F)cc3)(C(F)(F)F)C2)cc1` (stereo not shown) [Example 157], the IC50 worked out at 168 nM on Human MGAT-2 [1] and 84 nM at Human MGAT-2 [2].

Consider `Cc1ccc(C2=C(C(=O)Nc3ccc(C(F)(F)F)cc3)C(=O)NC(c3ccc(OCCCC(F)(F)F)cc3)(C(F)(F)F)C2)cc1` (stereo not shown) [Example 86], for which the IC50 at Human MGAT-2 [1] turned out to be 201 nM; at Human MGAT-2 [2] it was 1 nM.

With `COc1cnc(NC(=O)C2=C(c3ccc(C)cc3)CC(c3ccc(OCCCCC(F)(F)F)cc3)(C(F)(F)F)NC2=O)cn1` (stereo not shown) [Example 273], the IC50 was found to be 21 nM at Human MGAT-2 [1] and 10 nM on Human MGAT-2 [2].

For `Cc1ccc(C2=C(NC(=O)c3nnc(C)o3)C(=O)NC(c3ccc(OCCCC(F)(F)F)cc3)(C(F)(F)F)C2)cc1` (stereo not shown) [Example 154], the figures for the IC50 at Human MGAT-2 [1] and on Human MGAT-2 [2] were 34 nM and 8 nM, respectively.

In the case of `COc1ccc(C2=C(C#N)C(=O)NC(c3ccc(OCCCC(F)(F)F)cc3)(C(F)(F)F)C2)c(F)c1` (stereo not shown) [Example 91], the IC50 came out at 916 nM on Human MGAT-2 [1] and 2 nM at Human MGAT-2 [2].

For `CCCCCc1ccc(C2(C(F)(F)F)CC(c3ccc(C)cc3)=C(C(=O)Nc3ccc(F)cc3)C(=O)N2)cc1` (stereo not shown) [Example 51], the values for the IC50 at Human MGAT-2 [1] and at Human MGAT-2 [2] were 63 nM and 13 nM, respectively.

On to `COc1ccc(C2=C(n3cnnn3)C(=O)NC(c3ccc(OCCCC(F)(F)F)cc3)(C(F)(F)F)C2)c(F)c1` (stereo not shown) [Example 142], for which the values for the IC50 at Human MGAT-2 [1] and on Human MGAT-2 [2] were 93 nM and 10 nM, respectively.

Turning to `N#CC1=C(c2cccc(Cl)c2)CC(c2ccc(OCCCC(F)(F)F)cc2)(C(F)(F)F)NC1=O` (stereo not shown) [Example 68], the figures for the IC50 on Human MGAT-2 [1] and at Human MGAT-2 [2] were 7520 nM and 1280 nM, respectively.

Take `Cc1ccc(C2=C(C(=O)Nc3ccc(F)cc3)C(=O)NC(c3ccc(-c4cnccn4)cc3)(C(F)(F)F)C2)cc1` (stereo not shown) [Example 50]: the IC50 at Human MGAT-2 [1] worked out at 242 nM; at Human MGAT-2 [2], 95 nM.

As for `COc1ccc(NC(=O)C2=C(c3ccc(C)cc3)C(F)(F)C(c3ccc(OCCC(F)(F)F)cc3)(C(F)(F)F)NC2=O)cc1` (stereo not shown) [Example 133], the IC50 is 1520 nM on Human MGAT-2 [1] and 127 nM at Human MGAT-2 [2].

`COc1ccc(C2(C(F)(F)F)CC(c3ccc(C)cc3)=C(C(=O)Nc3ccc(F)cc3)C(=O)N2)cc1` (stereo not shown) [Example 41]: the IC50 at Human MGAT-2 [1] worked out at 170 nM; on Human MGAT-2 [2], 15 nM.

For `O=C1NC(c2ccc(OCCCC(F)(F)F)cc2)(C(F)(F)F)CC(c2ccc(OC(F)F)cc2)=C1NC(=O)c1ccno1` (stereo not shown) [Example 167], the IC50 was determined as 8 nM on Human MGAT-2 [1] and 2 nM on Human MGAT-2 [2].

For `COc1ccc(C(=O)NC2=C(c3ccc(C)cc3)C(F)(F)C(c3ccc(OCCCC(F)(F)F)cc3)(C(F)(F)F)NC2=O)cc1` (stereo not shown) [Example 163], the IC50 turned out to be 1180 nM at Human MGAT-2 [1] and 47 nM at Human MGAT-2 [2].

Take `O=C1NC(c2ccc(OCCCC(F)(F)F)cc2)(C(F)(F)F)CC(c2ccc(OC(F)F)cc2)=C1c1nn[nH]n1` (stereo not shown) [Example 93]: the IC50 was 37 nM at Human MGAT-2 [1] and 30 nM at Human MGAT-2 [2].

As for `Cc1ccc(C2=C(C(=O)Nc3ccc(F)cc3)C(=O)NC(c3ccc(Oc4ncccn4)cc3)(C(F)(F)F)C2)cc1` (stereo not shown) [Example 52], the IC50 stood at 477 nM at Human MGAT-2 [1] and 99 nM at Human MGAT-2 [2].

Regarding `Cc1ccc(C2=C(c3ccc(OC(F)(F)F)cc3)C(=O)NC(c3ccc(OCCCC(F)(F)F)cc3)(C(F)(F)F)C2)cc1` (stereo not shown) [Example 94], the IC50 was found to be 32 nM at Human MGAT-2 [1] and 4 nM at Human MGAT-2 [2].

On to `Cc1ccc(NC(=O)C2=C(c3ccc(C)cc3)CC(c3ccc(OCCCC(F)(F)F)cc3)(C(F)(F)F)NC2=O)cc1` (stereo not shown) [Example 82], for which the IC50 at Human MGAT-2 [1] came out at 133 nM; on Human MGAT-2 [2], 2 nM.

Take `Cc1ccc(C2=C(C(=O)Nc3ccc(Cl)cc3)C(=O)NC(c3ccc(OCCCC(F)(F)F)cc3)(C(F)(F)F)C2)cc1` (stereo not shown) [Example 62]: the values for the IC50 at Human MGAT-2 [1] and on Human MGAT-2 [2] were 156 nM and 24 nM, respectively.

As for `CCCCCCCCNC(=O)C1(C)CC(c2ccc(C)cc2)=C(C(=O)Nc2ccc(OC)cc2)C(=O)N1` (stereo not shown) [Example 174], the IC50 is 237 nM at Human MGAT-2 [1] and 60 nM on Human MGAT-2 [2].

For `COc1cccc(C2=C(C#N)C(=O)NC(c3ccc(OCCCC(F)(F)F)cc3)(C(F)(F)F)C2)c1` (stereo not shown) [Example 64], the results for the IC50 at Human MGAT-2 [1] and on Human MGAT-2 [2] were 761 nM and 280 nM, respectively.
